This passage reports cytotoxicity results from ChEMBL document CHEMBL3507680, “University of Dundee, Gates Library screen for HepG2 cell viability”.

The series in a line: Human HepG2 cell viability assay in 384 well format. Format: toxicity, cell-based. Set-up: dose 125 nL, time 70.5 hour; concentration not given beside the values. The note with it: HepG2 cells, read-out: Inhibition.
On to `CN(C)C(=O)COCC1CN(CC2CCOCC2)Cc2ncn(C)c21` (centres undefined), for which the cytotoxicity at 70.5 h was -1.41%.

Take `CN1CCN(C[C@H]2OC[C@@H]3CCN(Cc4ccsc4)C[C@@H]32)CC1`: the cytotoxicity at 70.5 h was -0.843%.

With `Cc1ccc(N2CCc3ncc(CNc4ccccn4)n3CC2)nn1`, the cytotoxicity at 70.5 h was -1.74%.

For `CN(C)CCN1Cc2ncn(C)c2C(COCC(=O)N(C)C)C1` (centres undefined), the cytotoxicity at 70.5 h was -8.47%.

For `CC1=N[C@@]2(CC[C@@H]3CN(C(=O)NCC(C)C)C[C@@H]32)C(=O)N1C`, the cytotoxicity at 70.5 h was -0.53%.

As for `Cc1noc([C@@]23CCO[C@@H]2CCN(C(=O)c2cc(C)c(C)s2)C3)n1`, the cytotoxicity at 70.5 h is -0.38%.

As for `Cc1ccc(C(=O)N2CCN3C[C@H](Oc4cncnc4)C[C@H]3C2)cn1`, the cytotoxicity at 70.5 h is -0.158%.

Take `O=C(c1ccncc1)N1CCN2C[C@H](Oc3cncnc3)C[C@H]2C1`: the cytotoxicity at 70.5 h was determined as 1.56%.

Consider `c1ccc(NCc2cn3c(n2)CN(Cc2nccs2)CC3)nc1`, for which the cytotoxicity at 70.5 h was -0.336%.

Consider `Cc1noc([C@@]23CCO[C@@H]2CCN(C(=O)c2cc(C)on2)C3)n1`, for which the cytotoxicity at 70.5 h is -3.23%.

As to `Cc1noc([C@@]23CCO[C@@H]2CCN(C(=O)c2ccsc2)C3)n1`, the cytotoxicity at 70.5 h was -1.85%.

`COCCN1C(=O)[C@]2(CC[C@@H]3CN(C(=O)NC(C)C)C[C@@H]32)N=C1C`: the cytotoxicity at 70.5 h stood at 25.4%.

On to `CC1=N[C@@]2(CC[C@@H]3CN(C(=O)NCC(C)C)C[C@@H]32)C(=O)N1CC(C)C`, for which the cytotoxicity at 70.5 h turned out to be 12.3%.

Consider `O=C1NC(c2ccccc2)=N[C@@]12CC[C@@H]1CN(Cc3ccoc3)C[C@@H]12`, for which the cytotoxicity at 70.5 h is -3.26%.

Turning to `CCS(=O)(=O)N1CCC2(CC(=O)N(c3cnn(C)c3)C2)C1` (centres undefined), the cytotoxicity at 70.5 h is -2.5%.

As for `COCC1CN(Cc2cc(C)on2)Cc2cn(CC3CC3)nc21` (centres undefined), the cytotoxicity at 70.5 h was -1.87%.

On to `O=C(c1ccsc1)N1CCc2c(CN3CCCC3)n[nH]c2C1`, for which the cytotoxicity at 70.5 h was found to be 0.233%.

Take `O=C1NC(c2ccccc2)=N[C@@]12CC[C@@H]1CN(CC3CCOCC3)C[C@@H]12`: the cytotoxicity at 70.5 h worked out at 23.3%.

With `c1ccc(C[C@H]2[C@H](N3CCOCC3)CCN2Cc2cccnc2)cc1`, the cytotoxicity at 70.5 h was 2.51%.

For the molecule `CO[C@H]1CO[C@@]2(CCCN(C(=O)C3=CCCCC3)C2)C1`, the cytotoxicity at 70.5 h was -2.72%.

As for `CN(C)C(=O)N1CCc2c(nnn2C)C1COCc1ccccc1` (centres undefined), the cytotoxicity at 70.5 h was -2.85%.

`O=C([C@H]1C[C@H]2OCC[C@H]2N(C(=O)c2ccncc2)C1)N1CCCCO1`: the cytotoxicity at 70.5 h was found to be 3.71%.

On to `Cn1cccc1C(=O)NCc1cnc2n1CCN(C(=O)N1CCCC1)C2`, for which the cytotoxicity at 70.5 h is -4.52%.

In the case of `O=C(c1ccsc1)N1CCc2c(CNc3ncccn3)n[nH]c2C1`, the cytotoxicity at 70.5 h amounted to 3.39%.

Regarding `CN(C)C(=O)c1nc2c(s1)CCN(C(=O)c1ccc(Cl)cc1)CC2`, the cytotoxicity at 70.5 h was -2.44%.

For the molecule `O=C(c1cscn1)N1C[C@@H]2[C@@H](C1)OCC(=O)N2CC1CCCC1`, the cytotoxicity at 70.5 h is -6.35%.

Consider `COCCC(=O)N1CCN(CCN(C)C)c2ncccc2C1`, for which the cytotoxicity at 70.5 h is -6.14%.

As for `Cc1csc([C@@H]2C[C@@H]3CCN(Cc4cnn(C)c4)C[C@H]3O2)n1`, the cytotoxicity at 70.5 h is -8.46%.

Consider `CN(C)C(=O)COCc1cncc2c1CCN(Cc1nccn1C)C2`, for which the cytotoxicity at 70.5 h is -7.66%.

On to `c1ccc(O[C@H]2CC[C@H]3[C@H]2OCCN3Cc2nccs2)nc1`, for which the cytotoxicity at 70.5 h is -9.23%.

Turning to `O=C(CCO)N1CCOC2(CCCN(C(=O)c3ccco3)C2)C1` (centres undefined), the cytotoxicity at 70.5 h is -7.04%.

In the case of `COCC(=O)N1CC[C@@H]2CN(Cc3cccc(Cl)c3)S(=O)(=O)[C@@H]2CC1`, the cytotoxicity at 70.5 h turned out to be 24.3%.

As for `COCCN1CCC2(CCN(Cc3nccs3)CC2)C1=O`, the cytotoxicity at 70.5 h was -8.69%.

`Cc1noc(C)c1CN1CC2(CCN(C(=O)c3c[nH]cn3)C2)CC1=O` (centres undefined): the cytotoxicity at 70.5 h was -11.1%.

In the case of `CCN(C)c1ncnc2c1CCN(C(=O)c1ccno1)CC2`, the cytotoxicity at 70.5 h was -7.5%.

Turning to `Cc1occc1C(=O)N1CCC2(CC1)CC(c1cccnc1)C(=O)N2C` (centres undefined), the cytotoxicity at 70.5 h is -17.4%.

For the molecule `O=C([C@H]1C[C@@H]2CCN(C3CCOCC3)C[C@H]2O1)N1CCCC1`, the cytotoxicity at 70.5 h was -4.47%.

For `Cn1cc(CN2C[C@@H]3COC[C@]3(C(=O)NCCc3ccccc3)C2)cn1`, the cytotoxicity at 70.5 h is -8.15%.

Consider `CN(C)C(=O)[C@@H]1C[C@@H]2CCN(C3CCOCC3)C[C@H]2O1`, for which the cytotoxicity at 70.5 h is -4.53%.

For `CN(C)CCO[C@@H]1CC[C@H]2[C@H]1OCCN2C(=O)c1ccnnc1`, the cytotoxicity at 70.5 h was determined as 22.4%.

As for `O=C([C@@H]1C[C@@H]2CCN(C3CCOCC3)C[C@H]2O1)N1CCOCC1`, the cytotoxicity at 70.5 h was -0.695%.

On to `O=C(Cc1cccc(F)c1)N1CCN2C[C@H](Oc3cncnc3)C[C@H]2C1`, for which the cytotoxicity at 70.5 h was -2.68%.

As for `CCOC[C@@H]1CC[C@H]2[C@H](CCN2Cc2c(C)noc2C)O1`, the cytotoxicity at 70.5 h was -0.0549%.

Regarding `COCCN1C[C@@H](C)[C@@]2(COCCN(C(=O)c3ccno3)C2)C1`, the cytotoxicity at 70.5 h is -1.41%.

For `Cc1noc(C)c1CN1CC[C@H]2O[C@@H](C(=O)N3CCCC3)CC[C@H]21`, the cytotoxicity at 70.5 h is 6.38%.

Take `Cc1noc(C)c1CN1CC[C@@H]2O[C@@H](COCC3CC3)CC[C@@H]21`: the cytotoxicity at 70.5 h was -4.44%.

In the case of `O=S(=O)(C1CC1)N1CCn2cc(CNc3ccccn3)nc2C1`, the cytotoxicity at 70.5 h is -0.935%.

With `COCc1cnc2n1CCN(C1CCCC1)C2C` (centres undefined), the cytotoxicity at 70.5 h was found to be 5.67%.

Consider `Cc1nc(CN2CCCn3cnc(COCC4CC4)c3C2)cs1`, for which the cytotoxicity at 70.5 h was -1.49%.

`CCCS(=O)(=O)N1CCn2cc(CNc3ccccn3)nc2C1`: the cytotoxicity at 70.5 h was -2.49%.

Regarding `CO[C@@H]1CCN(c2nnc(C)s2)C[C@@H]1Cc1cccc(C)c1`, the cytotoxicity at 70.5 h is -0.0343%.

For `O=C(c1cccs1)N1CCC[C@]2(C[C@@H](OCc3ccncc3)CO2)C1`, the cytotoxicity at 70.5 h was -4.03%.

As for `Cc1nc(CN2CCc3ncnc(C4CCOC4)c3CC2)cs1` (centres undefined), the cytotoxicity at 70.5 h was found to be 0.032%.

For the molecule `Cn1cc(N2CC3(CCN(CC4CC4)C3)CC2=O)cn1` (centres undefined), the cytotoxicity at 70.5 h was -2.96%.

For the molecule `Cc1ccc(CN2C[C@H](C(=O)N3CCCCO3)[C@@H]3CCO[C@@H]3C2)o1`, the cytotoxicity at 70.5 h was -5.78%.

With `Cc1noc([C@@]23CCO[C@@H]2CCN(CC2CCOCC2)C3)n1`, the cytotoxicity at 70.5 h is -5.71%.

As for `Cn1cccc1C(=O)N[C@@H]1CN(CC2CC2)[C@@H]2COC[C@@H]21`, the cytotoxicity at 70.5 h is -5.94%.

For `COCCN1C[C@@H]2CCCO[C@@H]2[C@H](NC(=O)c2cnccn2)C1`, the cytotoxicity at 70.5 h is -0.647%.

On to `O=C(C1=CCCC1)N1CCC[C@]2(C[C@@H](OCc3ccncc3)CO2)C1`, for which the cytotoxicity at 70.5 h came to 0.64%.

In the case of `Cc1nc(CN2CCn3cc(CNC(=O)C4CCC4)nc3C2)cs1`, the cytotoxicity at 70.5 h was determined as 14%.

In the case of `CO[C@H]1CN(Cc2cccc(C#N)c2)[C@@H]2COC[C@H]12`, the cytotoxicity at 70.5 h was -0.497%.

Turning to `O=C(O)[C@]12CCCN(Cc3ccccc3)C[C@H]1CN(c1ncccn1)C2`, the cytotoxicity at 70.5 h was -5.39%.

With `Cc1nnc(N2CC[C@H](OCC3CC3)[C@@H](Cc3ccccc3)C2)s1`, the cytotoxicity at 70.5 h came out at 11.8%.

In the case of `O=C([C@H]1CN(CCc2ccccc2)C[C@H]2OCC[C@@H]12)N1CCCO1`, the cytotoxicity at 70.5 h came out at 6.27%.

As to `COc1ccc(CN2CCc3ncnc(C4CCOC4)c3CC2)cc1` (centres undefined), the cytotoxicity at 70.5 h came out at 13.2%.

In the case of `O=C1[C@H]2CN(Cc3cccs3)C[C@H]2CN1c1cncnc1`, the cytotoxicity at 70.5 h was -6.91%.

Take `COCC1CN(Cc2ccc(C)o2)Cc2nnn(CC3CC3)c21` (centres undefined): the cytotoxicity at 70.5 h was -5.7%.

On to `Cc1occc1C(=O)N1CCOCC2(CCN(Cc3nccs3)C2)C1` (centres undefined), for which the cytotoxicity at 70.5 h was -6.13%.

In the case of `CN(C)C(=O)CO[C@H]1CN(Cc2ccc(F)cc2)[C@@H]2CCCO[C@H]12`, the cytotoxicity at 70.5 h is -9.38%.

For `Cc1occc1C(=O)N1CCCC2(CCN(CCN3CCCC3)C2=O)C1` (centres undefined), the cytotoxicity at 70.5 h was -11.9%.

On to `Cc1ccc(CN2CCOC3(CCCN(C(=O)c4ccco4)C3)C2)s1` (centres undefined), for which the cytotoxicity at 70.5 h was -10.7%.

As to `CN(C)C(=O)CN1CCC2(CCN(Cc3nccs3)CC2)C1=O`, the cytotoxicity at 70.5 h is 16.1%.

`CCn1cc2c(n1)CN(C(=O)c1ccncc1)CC2COCC1CC1` (centres undefined): the cytotoxicity at 70.5 h is -25.7%.

Regarding `O=C(c1ccncc1)N1CCN2C[C@H](Oc3cccc(F)c3)C[C@H]2C1`, the cytotoxicity at 70.5 h was -0.421%.

Consider `CC1c2ncc(COCc3ccccn3)n2CCN1C1CCCC1` (centres undefined), for which the cytotoxicity at 70.5 h is -2.61%.

For the molecule `CN1CC(=O)N(c2ccccc2)CC12CCN(Cc1nccs1)C2` (centres undefined), the cytotoxicity at 70.5 h turned out to be 3.9%.

Consider `CC(C)NC(=O)[C@H]1C[C@@H]2[C@@H](C1)OCCN2Cc1cccnc1`, for which the cytotoxicity at 70.5 h was -2.77%.

Consider `COCC1CN(Cc2ccc(C)o2)Cc2cn(C)nc21` (centres undefined), for which the cytotoxicity at 70.5 h amounted to 3.14%.

For the molecule `CN(C)CCO[C@H]1CN(Cc2cccc(C#N)c2)[C@@H]2COC[C@H]12`, the cytotoxicity at 70.5 h is -1.49%.

Turning to `O=C(CC1CC1)N[C@@H]1CN(Cc2ccncc2)C[C@@H]2CCCO[C@@H]21`, the cytotoxicity at 70.5 h was -0.814%.

Regarding `COCCN1CCOCC2(CCCN(Cc3ccc(C)o3)C2)C1` (centres undefined), the cytotoxicity at 70.5 h stood at 7.21%.

Take `c1cncc(COCc2nnc3n2CCN(Cc2ccsc2)C3)c1`: the cytotoxicity at 70.5 h was -2.47%.

As to `O=C1[C@H]2CN(Cc3ccoc3)C[C@H]2CN1Cc1ccncc1`, the cytotoxicity at 70.5 h was -1.61%.

In the case of `c1csc(CN2CCO[C@H]3[C@H](OCCN4CCCC4)CC[C@@H]32)n1`, the cytotoxicity at 70.5 h is -11.1%.

In the case of `COCC1CC2(CCN(Cc3cnn(C)c3)CC2)CN1c1ncccn1` (centres undefined), the cytotoxicity at 70.5 h was -10.8%.

Consider `CC1c2ncc(CN3CCN(C)CC3)n2CCN1Cc1cnn(C)c1` (centres undefined), for which the cytotoxicity at 70.5 h came out at 13.6%.

For the molecule `Cn1cnc2c1C(COCc1ccccc1)N(Cc1cccnc1)CC2` (centres undefined), the cytotoxicity at 70.5 h was -0.0183%.

On to `Cn1cnc2c1C(COCc1cccnc1)N(Cc1nccs1)CC2` (centres undefined), for which the cytotoxicity at 70.5 h is -1.3%.

For the molecule `Cc1ccc(CN2CC[C@@H](N3CCOCC3)[C@@H]2Cc2cccnc2)o1`, the cytotoxicity at 70.5 h is -6.64%.
